# Data taken from PubChem BioAssay AID328 (DTP/NCI, 2004).
# Where “and” joins values, the source holds several entries; their conditions need not be identical. Equal values may be shown once. Inconclusive results and toxic doses are left out.
# System: BDF1 mice, P388 leukemia ip, median survival T/C
# Assay: NCI In Vivo Anticancer Drug Screen. Data for tumor model P388 Leukemia (intraperitoneal) in B6D2F1 (BDF1) mice
# Details: endpoint: median survival time, higher = longer survival
# Summary of the method: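 Vehicle-dosed animals serve as the reference; survival of compound-dosed, tumour-implanted mice is divided by it.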
# [1] = dose: 50.0 mg/kg/injection, schedule: Q01DX009 (ip), vehicle: saline
# [2] = dose: 100.0 mg/kg/injection, schedule: Q01DX009 (ip), vehicle: saline
# [3] = dose: 100.0 mg/kg/injection, schedule: Q04DX003 (ip), vehicle: saline
# [4] = dose: 200.0 mg/kg/injection, schedule: Q04DX003 (ip), vehicle: saline
# [5] = dose: 25.0 mg/kg/injection, schedule: Q01DX009 (ip), vehicle: saline with Tween-80
# [6] = dose: 100.0 mg/kg/injection, schedule: Q04DX003 (ip), vehicle: saline with Tween-80
# [7] = dose: 200.0 mg/kg/injection, schedule: Q04DX003 (ip), vehicle: saline with Tween-80
# [8] = dose: 400.0 mg/kg/injection, schedule: Q04DX003 (ip), vehicle: saline with Tween-80
# [9] = dose: 50.0 mg/kg/injection, schedule: Q01DX009 (ip), vehicle: saline with Tween-80
# [10] = dose: 100.0 mg/kg/injection, schedule: Q01DX009 (ip), vehicle: saline with Tween-80
# [11] = dose: 200.0 mg/kg/injection, schedule: Q01DX009 (ip), vehicle: saline with Tween-80
# [12] = dose: 100.0 mg/kg/injection, schedule: Q04DX003 (ip), vehicle: Klucel (hydroxypropylcellulose) (HPC)
# [13] = dose: 50.0 mg/kg/injection, schedule: Q04DX003 (ip), vehicle: saline sonified
# [14] = dose: 100.0 mg/kg/injection, schedule: Q04DX003 (ip), vehicle: saline sonified
# [15] = dose: 200.0 mg/kg/injection, schedule: Q04DX003 (ip), vehicle: saline sonified
# [16] = dose: 12.5 mg/kg/injection, schedule: Q01DX009 (ip), vehicle: water
# [17] = dose: 25.0 mg/kg/injection, schedule: Q01DX009 (ip), vehicle: water
# [18] = dose: 50.0 mg/kg/injection, schedule: Q01DX009 (ip), vehicle: water
# [19] = dose: 100.0 mg/kg/injection, schedule: Q01DX009 (ip), vehicle: water
# [20] = dose: 50.0 mg/kg/injection, schedule: Q04DX003 (ip), vehicle: Klucel (hydroxypropylcellulose) (HPC)
smiles,measurement,setting,value
COc1ccc(/C=C/C(=O)c2ccc3c(c2)OCO3)cc1O,T/C,"dose: 3.12 mg/kg/injection, schedule: Q01DX009 (ip), vehicle: saline",104 % of control and 106 % of control
same,T/C,"dose: 6.25 mg/kg/injection, schedule: Q01DX009 (ip), vehicle: saline",93 % of control and 104 % of control
same,T/C,"dose: 12.5 mg/kg/injection, schedule: Q01DX009 (ip), vehicle: saline",100 % of control
same,T/C,"dose: 25.0 mg/kg/injection, schedule: Q01DX009 (ip), vehicle: saline",94 % of control and 110 % of control
same,T/C,[1],101 % of control and 107 % of control
same,T/C,"dose: 50.0 mg/kg/injection, schedule: Q04DX003 (ip), vehicle: saline",106 % of control
same,T/C,[2],93 % of control and 96 % of control
same,T/C,[3],113 % of control
same,T/C,[4],104 % of control
same,T/C,"dose: 400.0 mg/kg/injection, schedule: Q04DX003 (ip), vehicle: saline",114 % of control
COc1cccc(Sc2ccc([N+](=O)[O-])c3nonc23)c1,T/C,"dose: 12.5 mg/kg/injection, schedule: Q01DX009 (ip), vehicle: saline with Tween-80",102 % of control
same,T/C,[5],107 % of control
CO/N=C/c1cccnc1,T/C,"dose: 50.0 mg/kg/injection, schedule: Q01DX005 (ip), vehicle: saline",101 % of control
same,T/C,"dose: 100.0 mg/kg/injection, schedule: Q01DX005 (ip), vehicle: saline",105 % of control
C/C=C/C1CC(OC)=CC(=O)O1 (centres undefined),T/C,[6],106 % of control
same,T/C,[7],92 % of control
same,T/C,[8],97 % of control
O=C(CNC(=O)Nc1n[nH]c(=S)s1)NNC(=S)Nc1ccccc1,T/C,[9],115 % of control
same,T/C,[10],118 % of control
same,T/C,[11],109 % of control
NNc1nccnc1Cl,T/C,[3],105 % of control
same,T/C,[4],103 % of control
O=[N+]([O-])c1ccc(/C=C/C=C/c2ccc(Cl)cc2Cl)cc1,T/C,"dose: 50.0 mg/kg/injection, schedule: Q01DX009 (ip), vehicle: Klucel (hydroxypropylcellulose) (HPC)",104 % of control
same,T/C,"dose: 100.0 mg/kg/injection, schedule: Q01DX009 (ip), vehicle: Klucel (hydroxypropylcellulose) (HPC)",113 % of control
same,T/C,[12],104 % of control
same,T/C,"dose: 200.0 mg/kg/injection, schedule: Q01DX009 (ip), vehicle: Klucel (hydroxypropylcellulose) (HPC)",90 % of control
same,T/C,"dose: 200.0 mg/kg/injection, schedule: Q04DX003 (ip), vehicle: Klucel (hydroxypropylcellulose) (HPC)",95 % of control
same,T/C,"dose: 400.0 mg/kg/injection, schedule: Q04DX003 (ip), vehicle: Klucel (hydroxypropylcellulose) (HPC)",91 % of control
Nc1nc(CNc2ccccc2)nc(Nc2ccccc2)n1,T/C,[13],100 % of control
same,T/C,[14],100 % of control
same,T/C,[15],105 % of control
CCCCCCC(CCCCCC)(CCCCCC)B1OCCO1,T/C,[10],100 % of control
same,T/C,[6],100 % of control
same,T/C,[11],104 % of control
same,T/C,[7],109 % of control
same,T/C,"dose: 400.0 mg/kg/injection, schedule: Q01DX009 (ip), vehicle: saline with Tween-80",123 % of control
same,T/C,[8],104 % of control
O=[N+]([O-])C=C(S)S,T/C,[16],101 % of control
same,T/C,[17],124 % of control
same,T/C,[18],117 % of control
same,T/C,[19],108 % of control
Cc1ccc[nH]c1=O,T/C,[13],91 % of control
same,T/C,[14],91 % of control
same,T/C,[15],100 % of control
O=Ic1ccccc1,T/C,"dose: 6.25 mg/kg/injection, schedule: Q01DX009 (ip), vehicle: Klucel (hydroxypropylcellulose) (HPC)",105 % of control and 118 % of control
same,T/C,"dose: 12.5 mg/kg/injection, schedule: Q01DX009 (ip), vehicle: Klucel (hydroxypropylcellulose) (HPC)",105 % of control and 116 % of control
same,T/C,"dose: 25.0 mg/kg/injection, schedule: Q01DX009 (ip), vehicle: Klucel (hydroxypropylcellulose) (HPC)",122 % of control and 124 % of control and 204 % of control
same,T/C,[20],104 % of control
same,T/C,[12],95 % of control
O=C1OC(=O)C2C1C(c1ccc(Cl)cc1)N1C3C(=O)OC(=O)C3C(c3ccc(Cl)cc3)N21 (centres undefined),T/C,[9],97 % of control
same,T/C,[10],93 % of control
same,T/C,[11],88 % of control
CCC/[N+]([O-])=C/c1ccc([N+](=O)[O-])o1,T/C,[5],101 % of control
same,T/C,[9],105 % of control
same,T/C,[10],115 % of control
CCN(Cc1ccc(Cl)c(Cl)c1)c1ccc2nc(N)nc(N)c2c1C,T/C,"dose: 1.56 mg/kg/injection, schedule: Q01DX009 (ip), vehicle: water",105 % of control
same,T/C,"dose: 6.25 mg/kg/injection, schedule: Q01DX009 (ip), vehicle: water",151 % of control
same,T/C,[16],98 % of control
same,T/C,"dose: 12.5 mg/kg/injection, schedule: Q04DX003 (ip), vehicle: Klucel (hydroxypropylcellulose) (HPC)",107 % of control
same,T/C,"dose: 12.5 mg/kg/injection, schedule: Q04DX003 (ip), vehicle: water",103 % of control and 118 % of control
same,T/C,[17],89 % of control
same,T/C,"dose: 25.0 mg/kg/injection, schedule: Q04DX003 (ip), vehicle: Klucel (hydroxypropylcellulose) (HPC)",109 % of control
same,T/C,[20],115 % of control
same,T/C,"dose: 50.0 mg/kg/injection, schedule: Q04DX003 (ip), vehicle: water",159 % of control and 189 % of control
same,T/C,[12],88 % of control
same,T/C,"dose: 100.0 mg/kg/injection, schedule: Q04DX003 (ip), vehicle: water",109 % of control
Cc1ccc(S(=O)(=O)OC2CS(=O)(=O)C2)cc1,T/C,[5],102 % of control
same,T/C,[9],100 % of control
same,T/C,[10],102 % of control
same,T/C,[11],102 % of control
CCOP(=O)(OCC)C(C)OC (centres undefined),T/C,[1],100 % of control and 105 % of control
same,T/C,[2],115 % of control and 116 % of control
same,T/C,"dose: 200.0 mg/kg/injection, schedule: Q01DX009 (ip), vehicle: saline",104 % of control and 120 % of control
same,T/C,"dose: 400.0 mg/kg/injection, schedule: Q01DX009 (ip), vehicle: saline",100 % of control
O=C(NO)c1ccccn1,T/C,"dose: 130.0 mg/kg/injection, schedule: Q01DX010 (ip), vehicle: water",109 % of control
same,T/C,"dose: 200.0 mg/kg/injection, schedule: Q01DX010 (ip), vehicle: water",100 % of control
Fc1ccc(-c2n[nH]c3c2CCCc2ccccc2-3)cc1,T/C,[6],114 % of control
same,T/C,[7],114 % of control
same,T/C,[8],123 % of control
CC([NH-])=O.CC([NH-])=O.[Pt+2],T/C,[17],96 % of control
same,T/C,[18],104 % of control
same,T/C,[19],102 % of control
same,T/C,"dose: 200.0 mg/kg/injection, schedule: Q01DX009 (ip), vehicle: water",107 % of control
same,T/C,"dose: 300.0 mg/kg/injection, schedule: Q01DX009 (ip), vehicle: water",112 % of control
COC(=O)CCCCCC(O)C1CCC2OC(=O)CC21C (centres undefined),T/C,[6],100 % of control
same,T/C,[7],100 % of control
same,T/C,[8],100 % of control
CCCCCCCCCCCC(=O)CCC,T/C,"dose: 100.0 mg/kg/injection, schedule: Q04DX003 (ip), vehicle: other",100 % of control
same,T/C,"dose: 200.0 mg/kg/injection, schedule: Q04DX003 (ip), vehicle: other",91 % of control and 100 % of control
same,T/C,"dose: 400.0 mg/kg/injection, schedule: Q04DX003 (ip), vehicle: other",91 % of control and 100 % of control
O=C1c2ccccc2-c2cc3ccccc3cc21,T/C,"dose: 75.0 mg/kg/injection, schedule: Q04DX003 (ip), vehicle: saline sonified",100 % of control
same,T/C,"dose: 150.0 mg/kg/injection, schedule: Q04DX003 (ip), vehicle: saline sonified",110 % of control
same,T/C,"dose: 300.0 mg/kg/injection, schedule: Q04DX003 (ip), vehicle: saline sonified",110 % of control
CO[C@H]1C[C@](C)(O)Cc2cc3c(c(O)c21)C(=O)c1c(O)cc2c(c1C3=O)O[C@@H]1O[C@@]2(C)[C@H](O)[C@@H](N(C)C)[C@@H]1O,T/C,"dose: 18.0 mg/kg/injection, schedule: Q04DX003 (ip), vehicle: lactate",228 % of control
same,T/C,"dose: 30.0 mg/kg/injection, schedule: Q04DX003 (ip), vehicle: lactate",271 % of control
same,T/C,"dose: 50.0 mg/kg/injection, schedule: Q04DX003 (ip), vehicle: lactate",107 % of control
CCOC(=O)CCC(NC(=O)c1ccc(N(C=O)CCOC=O)cc1)C(=O)OCC (centres undefined),T/C,"dose: 50.0 mg/kg/injection, schedule: Q04DX003 (ip), vehicle: saline with Tween-80",105 % of control
same,T/C,[6],105 % of control
same,T/C,[7],111 % of control
